Columns and labels:
[1] = tested on: FKBP5; assay: Western blot FKBP5 protein in R1-D567 cells; assay type: cell-based, human
Experimental: Cell lysates (40 μl) from luciferase assays (96-well plate) were separated on a 10% SDS-polyacrylamide mini gel. Protein was transferred to methanol-charged PVDF membranes and probed with anti-AR441 (mouse, Sigma™) monoclonal primary antibody. Blots were also probed with polyclonal anti-actin (rabbit, Sigma™) to show equal loading and polyclonal anti-PARP/anti-cleaved PARP (rabbit, Sigma™) to test for induction of apoptosis. Lysates from CWR-R1 cells were additionally probed with polyclonal anti-FKBP5 (rabbit, Sigma™) following 2 days of incubation with compounds.

[2] = target: T1, AR-DBD+hinge / ARE dsDNA (Homo sapiens, UniProt P10275); assay: Biolayer interferometry analysis of dsDNA (ARE) association with biotinylated AR-DBD+hinge; assay type: binding; design: His tag (C); made in house; host or cells: E. coli BL21 co-transformed with biotin ligase vector (pBir-Acm); details: 50 μM compound
T1 sequence (P10275 558-689): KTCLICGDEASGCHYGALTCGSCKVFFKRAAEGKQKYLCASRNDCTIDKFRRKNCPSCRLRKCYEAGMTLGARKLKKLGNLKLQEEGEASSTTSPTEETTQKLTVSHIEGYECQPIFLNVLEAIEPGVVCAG
Experimental: The plasmid encoding the AR-DBD+hinge was transformed into BL21 (DE3). BL21 cells designated for expression of biotin-labeled AR-DBD+hinge were co-transformed with the Pan4 AR-DBD+hinge (ampicillin selection) and biotin ligase expression vectors (pBir-Acm, chloramphenicol selection). Single colonies were grown in 2 liters of LB media supplemented with 50 μg/ml ampicillin and 35 μg/ml chloramphenicol (where appropriate) to A600 nm=0.6 before induction with 0.1 mM isopropyl β-D-1-thiogalactopyranoside for 3 h at 37° C. Cultures expressing the AR-DBD with the biotinylation sequence were simultaneously supplemented with 0.150 mM biotin during the induction step. Cell pellets were resuspended in ˜20 ml of 50 mM Tris-HCl, pH 8.0, 300 mM NaCl, 5% glycerol (Buffer A) supplemented with 10 mM imidazole and incubated with 0.1 mg/ml chicken egg white lysozyme (Sigma™) and 0.1 mM PMSF protease inhibitor for 30 min on ice. Cell lysis was achieved by sonication, followed by centrifugation at 13,000×g for 30 min at 4° C. The supernatant was rotated with 2 ml of nickel-agarose beads (GE Healthcare™) for 1 h at 4° C. and then directly loaded onto a Poly-Prep 10-ml gravity chromatography column (Bio-Rad™). Washing was performed with 2×4 ml of Buffer A supplemented with 20 mM imidazole. Pure proteins were eluted in 500-μl fractions with 2 ml of Buffer A containing 250 mM imidazole.
Biolayer interferometry analysis on a ForteBio Octet Red™ instrument was carried out using biotinylated AR-DBD+hinge in Buffer A with 5% DMSO throughout all experiments. The DBD (0.1 mg/ml) was loaded onto streptavidin sensors in 200 μl of buffer for 30 min, followed by blocking of free streptavidin sites with biocytin (10 μg/ml) for 10 min. DBD-loaded sensors were then pre-equilibrated in 50 μM compound or 5% DMSO alone for 100 s in the same buffer. The kinetics of DNA association were monitored by moving sensors into wells containing dsDNA (ARE, 3 μM) supplemented with 50 μM compound for 120 s. This was followed by dissociation in buffer+compound, but lacking DNA, for an additional 120 s. Biocytin-blocked control sensors (no AR-DBD) were subjected to the same experimental conditions, and nonspecific interactions with dsDNA were subtracted from each curve.

[3] = tested on: PC3 cells; assay: Cell viability (MTS) assay, PC3; assay type: cell-based, human; details: 0.1 nM R1881
Experimental: 1. Cell Culture: LNCaP and PC3 human prostate cancer cells were obtained from American Type Culture Collection (ATCC, Manassas, Va.) and grown in RPMI 1640 medium supplemented with 5% fetal bovine serum (FBS) (Invitrogen). […]. All cells were maintained at 37° C. in 5% CO2.
7. Cell viability assay: The PC3, LNCaP, and MDV3100-resistant cells were plated at 3,000 cells per well in RPMI 1640 containing 5% charcoal stripped serum (CSS) in a 96-well plate, treated with 0.1 nM R1881 and compounds (0-25 μM) for 96 hrs.

[4] = target: T2, YFP-V7 (Homo sapiens, UniProt P10275); assay: Luciferase assay with YFP-V7 in PC3 cells; assay type: cell-based
T2 construct: expressed in transfected cells; host or cells: PC3
Excerpt: the underlined primer sections anneal to the specified template, although their 5′-extensions (italicized) are complementary to the corresponding primer sequence of the other PCR. Plasmid assembly is achieved by mixing the PCR products from each reaction (Klock, H. E. et al. (2008) Combining the polymerase incomplete primer extension method for cloning and mutagenesis with microscreening to accelerate structural genomics efforts. Proteins 71, 982-994), followed by transformation into chemically competent bacteria. A similar strategy was used to clone the AR-DBD+hinge into the Pan4 vector (avidity) expressing the N-terminal biotinylation sequence ([…] ) and C-terminal His tag. YFP-AR plasmid was a gift from Dr. Jan Trapman (van Royen, M. E. et al. (2012) Stepwise androgen receptor dimerization. J. Cell Sci. 125, 1970-1979) and is based on pEYFP-C1 (Clontech™). YFP-V7 was constructed by polymerase incomplete primer extension method using the following primers and templates: AR-V7 insert from pcDNA3. AR-V7 template

T2 sequence (P10275 1-644 isoform P10275-3): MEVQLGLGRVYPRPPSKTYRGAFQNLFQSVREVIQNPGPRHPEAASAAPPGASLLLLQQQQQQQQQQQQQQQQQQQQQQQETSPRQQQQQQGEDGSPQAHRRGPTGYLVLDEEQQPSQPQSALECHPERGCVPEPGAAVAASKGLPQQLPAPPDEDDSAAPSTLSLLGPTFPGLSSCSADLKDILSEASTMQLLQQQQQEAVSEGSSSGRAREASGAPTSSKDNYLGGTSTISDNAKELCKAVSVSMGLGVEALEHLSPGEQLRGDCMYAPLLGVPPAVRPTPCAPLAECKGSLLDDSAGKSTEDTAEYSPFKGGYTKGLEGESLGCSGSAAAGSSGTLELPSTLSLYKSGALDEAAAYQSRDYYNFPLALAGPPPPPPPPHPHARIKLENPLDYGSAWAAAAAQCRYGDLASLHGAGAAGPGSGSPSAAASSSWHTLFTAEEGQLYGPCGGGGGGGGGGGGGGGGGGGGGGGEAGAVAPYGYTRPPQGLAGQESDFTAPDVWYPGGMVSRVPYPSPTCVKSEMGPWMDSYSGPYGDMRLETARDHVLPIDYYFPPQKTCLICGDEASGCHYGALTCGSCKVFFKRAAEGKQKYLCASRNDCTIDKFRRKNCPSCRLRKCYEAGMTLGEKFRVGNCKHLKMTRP

With Brc1ncn(-c2csc(N3CCOCC3)n2)c1Br [Compound 14449] the “FKBP5 protein expression, R1-D567 cells” value [1] was “reduced”, the “dsDNA dissociation from AR-DBD” value [2] was “relatively unchanged” and the “rate of dsDNA association with AR-DBD” value [2] was “significantly slower rate of dsDNA binding”. The “inhibition of cell growth, PC3 (AR-negative)” value [3] was “ineffective” and the “inhibition of YFP-V7 driven luciferase expression” value [4] was “could be inhibited”.
With c1ccc(-c2csc(N3CCOCC3)n2)cc1 [Compound 14228, 4-(4-phenylthiazol-2-yl)morpholine] the “FKBP5 protein expression, R1-D567 cells” value [1] was “reduced”, the “dsDNA dissociation from AR-DBD” value [2] was “relatively unchanged” and the “rate of dsDNA association with AR-DBD” value [2] was “significantly slower rate of dsDNA binding”. For the same compound, the “inhibition of cell growth, PC3 (AR-negative)” value [3] was “no effect” and the “inhibition of YFP-V7 driven luciferase expression” value [4] was “could be inhibited”.
